Test results reported in patent US20230077362A1 (CORTEVA AGRISCIENCE LLC, priority 2019, published 2023).
Where two headings read alike, the source gives them in different places.

Assays:
[1] = system: Beet Armyworm (Spodoptera exigua) ("BAW"), second instar larvae; assay: Bioassay on beet armyworm (BAW), 128-well diet tray assay; type: in vivo; conditions: for pest or weed control at 50 µg/cm2: Spodoptera exigua; for BAW rating (% control or mortality class): 128-well diet tray assay, second instar larvae
How it was run: (§1)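 Mortality (%) is scored well by well after five to seven days at 25° C. on a 14:10 light:dark regime. The value given is the mean of eight wells.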

[2] = system: Cabbage Looper (Trichoplusia ni) ("CL"), second instar larvae; assay: Bioassay on cabbage looper (CL), 128-well diet tray assay; type: in vivo; conditions: for pest or weed control at 50 µg/cm2 / mortality at 50 µg/cm2: Trichoplusia ni; for mortality at 50 µg/cm2: 128-well diet tray assay, second instar larvae, read-out: CL rating (% control or mortality class)
How it was run: as §1

[3] = read-out: BAW (Biological Results, rating)
[4] = read-out: CL (Biological Results, rating)

For `Cc1ccc(COCC(F)F)c(N2C(=O)CS/C2=N\C(=O)Nc2ccc(-c3ncn(-c4ccc(OC(F)(F)F)cc4)n3)cc2C)c1` [Compound J420], the BAW rating ([1]; Table ABC, species BAW, C = not tested, D = no activity noticed) was “A (50-100)” and the CL rating ([2]; Table ABC, species CL, C = not tested, D = no activity noticed) was “A (50-100)”.

With `CC(C)c1ccc(N(C)C)cc1N1C(=O)CS/C1=N\C(=O)Nc1ccc(-c2ncn(-c3ccc(C(F)F)cn3)n2)cc1F` [Compound J347] the “BAW (Biological Results, rating)” value ([1]; Beet Armyworm (Spodoptera exigua), C = Not Tested) was “A (50-100)” and the “CL (Biological Results, rating)” value ([2]; Cabbage Looper (Trichoplusia ni), C = Not Tested) was “A (50-100)”.

For `CC(C)c1ccc(N(C)C)cc1N1C(=O)CS/C1=N\C(=O)Nc1ccc(-c2cn(-c3ccc(C(F)(F)F)cc3)cn2)cc1` [Compound J515, (Z)-1-(3-(5-(Dimethylamino)-2-isopropylphenyl)-4-oxothiazolidin-2-ylidene)-3-(4-(1-(4-(trifluoromethyl)phenyl)-1H-imidazol-4-yl)phenyl)urea], the pest or weed control at 50 µg/cm2 ([1]; read-out: BAW rating) was 50 to 100% and the pest or weed control at 50 µg/cm2 ([2]; read-out: CL rating) was 50 to 100%.

`Cc1ccc(OCCC(F)(F)F)c(N2C(=O)CS/C2=N\C(=O)Nc2ccc(-c3cn(-c4ccc(OC(F)(F)F)cc4)cn3)cc2F)c1` [Compound J476, (Z)-1-(2-Fluoro-4-(1-(4-(trifluoromethoxy)phenyl)-1H-imidazol-4-yl)phenyl)-3-(3-(5-methyl-2-(3,3,3-trifluoropropoxy)phenyl)-4-oxothiazolidin-2-ylidene)urea] gave a pest or weed control at 50 µg/cm2 ([1]; read-out: BAW rating) of 50 to 100% and a pest or weed control at 50 µg/cm2 ([2]; read-out: CL rating) of 50 to 100%.

In the case of `COc1c(C)cccc1N1C(=O)CS/C1=N\C(=O)Nc1ccc(-c2ncn(-c3ccc(OC(F)(F)F)cc3)n2)cc1F` [Compound J798, (Z)-1-(2-Fluoro-4-(1-(4-(trifluoromethoxy)phenyl)-1H-1,2,4-triazol-3-yl)phenyl)-3-(3-(2-methoxy-3-methylphenyl)-4-oxothiazolidin-2-ylidene)urea], the “BAW rating (% control or mortality class)” value ([1]; Table ABC, species BAW) is reported as “A (50-100)” and the mortality at 50 µg/cm2 ([2]; Table ABC, species CL) is reported as 50 to 100%.

`COC(c1ccc(C)cc1N1C(=O)CS/C1=N\C(=O)Nc1ccc(-c2cn(-c3ccc(OC(F)(F)F)cc3)nn2)cc1)C(F)(F)F` (stereo not shown) [Compound J494, (Z)-1-(3-(5-Methyl-2-(2,2,2-trifluoro-1-methoxyethyl)phenyl)-4-oxothiazolidin-2-ylidene)-3-(4-(1-(4-(trifluoromethoxy)phenyl)-1H-1,2,3-triazol-4-yl)phenyl)urea] was tested, and the pest or weed control at 50 µg/cm2 ([1]; read-out: BAW rating) was 50 to 100% and the pest or weed control at 50 µg/cm2 ([2]; read-out: CL rating) was 50 to 100%.

In the case of `Cc1ccc(Cc2ccccc2)c(N2C(=O)CS/C2=N\C(=O)Nc2ccc(-c3ncn(-c4ccc(OC(F)(F)F)cc4)n3)cc2C)c1` [Compound J456, (Z)-1-(3-(2-Benzyl-5-methylphenyl)-4-oxothiazolidin-2-ylidene)-3-(2-methyl-4-(1-(4-(trifluoromethoxy)phenyl)-1H-1,2,4-triazol-3-yl)phenyl)urea], the pest or weed control at 50 µg/cm2 ([1]; read-out: BAW rating) is reported as 50 to 100% and the pest or weed control at 50 µg/cm2 ([2]; read-out: CL rating) is reported as 50 to 100%.

In the case of `Cc1ccc(C(C)C)c(N2C(=O)CS/C2=N\C(=O)Nc2ccc(-c3ncn(-c4cccc(C(F)(F)F)c4)n3)cc2C)c1` [Compound J131, (Z)-1-(3-(2-Isopropyl-5-methylphenyl)-4-oxothiazolidin-2-ylidene)-3-(2-methyl-4-(1-(3-(trifluoromethyl)phenyl)-1H-1,2,4-triazol-3-yl)phenyl)urea], the pest or weed control at 50 µg/cm2 [1, 3] is reported as 50 to 100% and the pest or weed control at 50 µg/cm2 [2, 4] is reported as 50 to 100%.

For `CCCNc1ccc(C(C)C)c(N2C(=O)CS/C2=N\C(=O)Nc2ccc(-c3ncn(-c4ccc(OC(F)(F)F)cc4)n3)cc2C)c1` [Compound J128, (Z)-1-(3-(2-Isopropyl-5-(propylamino)phenyl)-4-oxothiazolidin-2-ylidene)-3-(2-methyl-4-(1-(4-(trifluoromethoxy)phenyl)-1H-1,2,4-triazol-3-yl)phenyl)urea], the pest or weed control at 50 µg/cm2 [1, 3] was 50 to 100% and the pest or weed control at 50 µg/cm2 [2, 4] was 50 to 100%.

`COC(C)c1ccc(C)cc1N1C(=O)CS/C1=N\C(=O)Nc1ccc(-c2ncn(-c3ccc(C(F)(F)F)cn3)n2)cc1` (stereo not shown) [Compound J338, (Z)-1-(3-(2-(1-Methoxyethyl)-5-methylphenyl)-4-oxothiazolidin-2-ylidene)-3-(4-(1-(5-(trifluoromethyl)pyridin-2-yl)-1H-1,2,4-triazol-3-yl)phenyl)urea] gave a pest or weed control at 50 µg/cm2 [1, 3] of 50 to 100% and a pest or weed control at 50 µg/cm2 [2, 4] of 50 to 100%.

For `Cc1ccc(COCC(F)(F)F)c(N2C(=O)CS/C2=N\C(=O)Nc2ccc(-c3ncn(-c4ccc(OC(F)(F)F)cn4)n3)cc2Cl)c1` [Compound J249, (Z)-1-(2-Chloro-4-(1-(5-(trifluoromethoxy)pyridin-2-yl)-1H-1,2,4-triazol-3-yl)phenyl)-3-(3-(5-methyl-2-((2,2,2-trifluoroethoxy)methyl)phenyl)-4-oxothiazolidin-2-ylidene)urea], the pest or weed control at 50 µg/cm2 [1, 3] was 50 to 100% and the pest or weed control at 50 µg/cm2 [2, 4] was 50 to 100%.

`CN(C)c1ccc(OCC(F)(F)F)c(N2C(=O)CS/C2=N\C(=O)Nc2ccc(-c3ncn(-c4ccc(S(=O)(=O)C(F)(F)F)cc4)n3)cc2F)c1` [Compound J672, (Z)-1-(3-(5-(Dimethylamino)-2-(2,2,2-trifluoroethoxy)phenyl)-4-oxothiazolidin-2-ylidene)-3-(2-fluoro-4-(1-(4-((trifluoromethyl)sulfonyl)phenyl)-1H-1,2,4-triazol-3-yl)phenyl)urea] showed a pest or weed control at 50 µg/cm2 ([1]; read-out: BAW rating) of 50 to 100% and a pest or weed control at 50 µg/cm2 ([2]; read-out: CL rating) of 50 to 100%.

With `CCCc1ccc(N(C)C)cc1N1C(=O)CS/C1=N\C(=O)Nc1ccc(-c2ncn(-c3ccc(SC(F)(F)F)cc3)n2)cc1` [Compound J388, (Z)-1-(3-(5-(Dimethylamino)-2-propylphenyl)-4-oxothiazolidin-2-ylidene)-3-(4-(1-(4-((trifluoromethyl)thio)phenyl)-1H-1,2,4-triazol-3-yl)phenyl)urea] the pest or weed control at 50 µg/cm2 ([1]; read-out: BAW rating) was 50 to 100% and the pest or weed control at 50 µg/cm2 ([2]; read-out: CL rating) was 50 to 100%.

`COCc1ccc(C)cc1N1C(=O)CS/C1=N\C(=O)Nc1ccc(-n2cnc(-c3ccc(OC(F)(F)F)cc3)c2)cc1Cl` [Compound J788, (Z)-1-(2-Chloro-4-(4-(4-(trifluoromethoxy)phenyl)-1H-imidazol-1-yl)phenyl)-3-(3-(2-(methoxymethyl)-5-methylphenyl)-4-oxothiazolidin-2-ylidene)urea] was tested, and the “BAW rating (% control or mortality class)” value ([1]; Table ABC, species BAW) was “A (50-100)” and the mortality at 50 µg/cm2 ([2]; Table ABC, species CL) was 50 to 100%.

`COCc1ccc(C)cc1N1C(=O)CS/C1=N\C(=O)Nc1ccc(-c2cn(-c3ccc(S(F)(F)(F)(F)F)cc3)cn2)cc1F` [Compound J592, (Z)-1-(2-Fluoro-4-(1-(4-(pentafluoro-λ^6-sulfaneyl)phenyl)-1H-imidazol-4-yl)phenyl)-3-(3-(2-(methoxymethyl)-5-methylphenyl)-4-oxothiazolidin-2-ylidene)urea] gave a pest or weed control at 50 µg/cm2 ([1]; read-out: BAW rating) of 50 to 100% and a pest or weed control at 50 µg/cm2 ([2]; read-out: CL rating) of 50 to 100%.

For `CCOC(C)c1ccc(C)cc1N1C(=O)CS/C1=N\C(=O)Nc1ccc(-c2ncn(-c3ccc(S(F)(F)(F)(F)F)cc3)n2)cc1C#N` (stereo not shown) [Compound J586, (Z)-1-(2-Cyano-4-(1-(4-(pentafluoro-λ^6-sulfaneyl)phenyl)-1H-1,2,4-triazol-3-yl)phenyl)-3-(3-(2-(1-ethoxyethyl)-5-methylphenyl)-4-oxothiazolidin-2-ylidene)urea], the pest or weed control at 50 µg/cm2 ([1]; read-out: BAW rating) was 50 to 100% and the pest or weed control at 50 µg/cm2 ([2]; read-out: CL rating) was 50 to 100%.

Work on `Cc1ccc(COCC(F)(F)F)c(N2C(=O)CS/C2=N\C(=O)Nc2ccc(-c3ncn(-c4ccc(OC(F)(F)F)cn4)n3)cc2F)c1` [Compound J237, (Z)-1-(2-Fluoro-4-(1-(5-(trifluoromethoxy)pyridin-2-yl)-1H-1,2,4-triazol-3-yl)phenyl)-3-(3-(5-methyl-2-((2,2,2-trifluoroethoxy)methyl)phenyl)-4-oxothiazolidin-2-ylidene)urea] yielded a pest or weed control at 50 µg/cm2 [1, 3] of 50 to 100% and a pest or weed control at 50 µg/cm2 [2, 4] of 50 to 100%.
